According to patent US10881110B2, “Herbicidal compositions comprising isoxazolo[5,4-b]pyridines” (BASF SE, priority 2014, dated 2021):

Tests used:
Test in all cases: greenhouse post-emergence herbicidal test
PAPRH = format: in vivo, Papaver rhoeas; parameters: key: rating on a scale from 0 to 100
Description: (§1) The culture containers used were plastic pots containing medium loamy sand with approximately 4.6% of humus and 69.9% sand as substrate. The seeds of the test plants were sown separately for each species.
(§2) For the post-emergence treatment, the test plants were grown to a plant height of from 1 to 15 cm, depending on the plant habit, and only then treated with the active compounds which had been suspended or emulsified in water. To this end, the test plants were either sown directly, and grown in the same containers, or they were first grown separately as seedlings and transplanted into the test containers a few days prior to treatment.
(§3) Depending on the species, the plants were kept at 10-25° C. and 20-35° C., respectively.
(§4) The test period extended over 1 to 3 weeks. During this time, the plants were tended and their response to the individual treatments was evaluated 20 days after treatment except mentioned otherwise.
(§5) Evaluation was carried out using a scale from 0 to 100. 100 means no emergence of the plants, or complete destruction of at least the above-ground parts, and 0 means no damage or normal course of growth.
(§6) The respective stated components A and B, and, if appropriate, C, were formulated as a 10% by weight strength emulsion concentrate and, with addition of the amount of solvent system, introduced into the spray liquor used for applying the active compound. In the examples, the solvent used was water.
(§7) In the examples below, using the method of S. R. Colby (1967) “Calculating synergistic and antagonistic responses of herbicide combinations”, Weeds 15, p. 22 ff., the value E, which is expected if the activity of the individual active compounds is only additive, was calculated. E=X+Y−(X·Y/100)

POLCO = format: in vivo, Polygonum convolvulus; parameters: key to herbicidal activity against POLCO found: rating on a scale from 0 to 100; details: post emergence
Description: as §1, §2, §3, §4, §5, §6, §7

ABUTH = format: in vivo, Abutilon theophrast; parameters: key to herbicidal activity against ABUTH found: rating on a scale from 0 to 100; details: post emergence
Description: as §1, §2, §3, §4, §5, §6, §7

ALOMY = format: in vivo, Alopecurus myosuroides; parameters: key to herbicidal activity against ALOMY found: rating on a scale from 0 to 100; details: post emergence
Description: as §1, §2, §3, §4, §5, §6, §7

APESV = format: in vivo, Apera spica-venti; parameters: key to herbicidal activity against APESV found: rating on a scale from 0 to 100; details: post emergence
Description: as §1, §2, §3, §4, §5, §6, §7

ERICA = format: in vivo, Conyza canadensis; parameters: key to herbicidal activity against ERICA found: rating on a scale from 0 to 100; details: post emergence
Description: as §1, §2, §3, §4, §5, §6, §7

VIOAR = format: in vivo, Viola arvensis; parameters: key to herbicidal activity against VIOAR found / herbicidal activity against VIOLA found: rating on a scale from 0 to 100; details: post emergence
Description: as §1, §2, §3, §4, §5, §6, §7

GALAP = format: in vivo, Galium aparine; details: post emergence
Description: as §1, §2, §3, §4, §5, §6, §7

KCHSC = format: in vivo, Kochia scoparia; details: post emergence
Description: as §1, §2, §3, §4, §5, §6, §7

GERDI = format: in vivo, Geranium dissectum; parameters: key to herbicidal activity against GERDI found: rating on a scale from 0 to 100; details: post emergence, B.52 2.5
Description: as §1, §2, §3, §4, §5, §6, §7

MATCH = format: in vivo, Matricaria recutita; parameters: key to herbicidal activity against MATCH found: rating on a scale from 0 to 100; details: post emergence; applied alone at 15 g/ha a.i.
Description: as §1, §2, §3, §4, §5, §6, §7

[1] = g/ha a.i.: I.1 31.25, B.52 2.5, mixture 31.25+2.5
[2] = g/ha a.i.: I.1 31.25, B.52 5, mixture 31.25+5
[3] = g/ha a.i.: I.1 62.5, B.52 2.5, mixture 62.5+2.5
[4] = g/ha a.i.: I.1 125, B.52 2.5, mixture 125+2.5

COc1ncc(F)c2nc(S(=O)(=O)Nc3c(F)cccc3F)nn12 [B.26, florasulam]
herbicidal activity against PAPRH found (PAPRH; 2 g/ha a.i.): 98
herbicidal activity against POLCO found (POLCO; 2 g/ha a.i.): 85

CCCC(=NOCC(C)Oc1ccc(Cl)cc1)C1=C(O)CC(C2CCCSC2)CC1=O (stereo not drawn) [B.9, profoxydim]
herbicidal activity against ABUTH found (ABUTH; applied alone at 6 g/ha a.i.): 0
herbicidal activity against ABUTH found (ABUTH; applied alone at 12 g/ha a.i.): 40
herbicidal activity against ALOMY found (ALOMY; applied alone at 12 g/ha a.i.): 25
herbicidal activity against APESV found (APESV; applied alone at 6 g/ha a.i.): 15
herbicidal activity against APESV found (APESV; applied alone at 12 g/ha a.i.): 55
herbicidal activity against POLCO found (POLCO; applied alone at 12 g/ha a.i.): 0

CCS(=O)(=O)c1nc2ccccn2c1S(=O)(=O)NC(=O)Nc1nc(OC)cc(OC)n1 [B.60, sulfosulfuron]
pest or weed control at 3 g/ha (ALOMY; Alopecurus myosuroides, post-emergence, 480 h, 3 g/ha a.i., read-out: herbicidal activity against ALOMY found): 60%
pest or weed control at 3 g/ha (APESV; Apera spica-venti, post-emergence, 480 h, 3 g/ha a.i., read-out: herbicidal activity against APESV found): 60%
pest or weed control at 3 g/ha (ERICA; Erigeron canadensis, post-emergence, 480 h, 3 g/ha a.i., read-out: herbicidal activity against ERICA found): 75%
herbicidal activity against PAPRH found (PAPRH; 3 g/ha a.i.): 90
pest or weed control at 3 g/ha (POLCO; Fallopia convolvulus, post-emergence, 480 h, 3 g/ha a.i., read-out: herbicidal activity against POLCO found): 90%
pest or weed control at 3 g/ha (VIOAR; Viola arvensis, post-emergence, 3 g/ha a.i., read-out: herbicidal activity against VIOAR found): 65%

CC(C)=NOCCOC(=O)[C@@H](C)Oc1ccc(Oc2cnc3cc(Cl)ccc3n2)cc1 [propaquizafop]
herbicidal activity against ABUTH found (ABUTH; applied alone at 10 g/ha a.i.): 30
herbicidal activity against ALOMY found (ALOMY; applied alone at 5 g/ha a.i.): 55
herbicidal activity against ALOMY found (ALOMY; applied alone at 10 g/ha a.i.): 65
herbicidal activity against APESV found (APESV; applied alone at 5 g/ha a.i.): 65
herbicidal activity against ERICA found (ERICA; applied alone at 5 g/ha a.i.): 0
herbicidal activity against GALAP found (GALAP; applied alone at 5 g/ha a.i.): 0
herbicidal activity against GALAP found (GALAP; applied alone at 10 g/ha a.i.): 10
herbicidal activity against KCHSC found (KCHSC; applied alone at 5 g/ha a.i.): 0
herbicidal activity against KCHSC found (KCHSC; applied alone at 10 g/ha a.i.): 10
herbicidal activity against POLCO found (POLCO; applied alone at 5 g/ha a.i.): 0
herbicidal activity against POLCO found (POLCO; applied alone at 10 g/ha a.i.): 0

COc1cnc(OC)n2nc(NS(=O)(=O)c3c(OCC(F)F)cccc3C(F)(F)F)nc12 [B.52, penoxsulam]
herbicidal activity against ABUTH found (ABUTH; [1]): 85
herbicidal activity against ABUTH found (ABUTH; [2]): 90
herbicidal activity against ABUTH found (ABUTH; [3]): 85
herbicidal activity against ALOMY found (ALOMY; [1]): 55
herbicidal activity against ALOMY found (ALOMY; [3]): 55
herbicidal activity against ALOMY found (ALOMY; [4]): 55
herbicidal activity against APESV found (APESV; [3]): 55
herbicidal activity against APESV found (APESV; [4]): 55
herbicidal activity against ERICA found (ERICA; [1]): 90
herbicidal activity against ERICA found (ERICA; [2]): 90
herbicidal activity against ERICA found (ERICA; [3]): 90
herbicidal activity against ERICA found (ERICA; g/ha a.i.: I.1 62.5, B.52 5, mixture 62.5+5): 90
herbicidal activity against GERDI found (GERDI; g/ha a.i.: I.1 31.25, mixture 31.25+2.5): 80
herbicidal activity against GERDI found (GERDI; g/ha a.i.: I.1 62.5, mixture 62.5+2.5): 80
herbicidal activity against GERDI found (GERDI; g/ha a.i.: I.1 125, mixture 125+2.5): 80
herbicidal activity against VIOAR found (VIOAR; [3]): 0
herbicidal activity against VIOAR found (VIOAR; [4]): 0
herbicidal activity against VIOAR found (VIOAR; g/ha a.i.: I.1 125, B.52 5, mixture 125+5): 60

CCOC(=O)[C@@H](C)Oc1ccc(Oc2cnc3cc(Cl)ccc3n2)cc1 [quizalofop-p-ethyl]
herbicidal activity against ABUTH found (ABUTH; applied alone at 7.5 g/ha a.i.): 15
herbicidal activity against ABUTH found (ABUTH; applied alone at 15 g/ha a.i.): 25
herbicidal activity against ERICA found (ERICA; applied alone at 7.5 g/ha a.i.): 0
herbicidal activity against ERICA found (ERICA; applied alone at 15 g/ha a.i.): 20
herbicidal activity against MATCH found (MATCH): 0
herbicidal activity against PAPRH found (PAPRH; applied alone at 15 g/ha a.i.): 50
herbicidal activity against VIOAR found (VIOAR; applied alone at 7.5 g/ha a.i.): 0
herbicidal activity against VIOAR found (VIOAR; applied alone at 15 g/ha a.i.): 0
